Here are results for 30 compounds from patent US20190161516A1, “PROTEASOME INHIBITORS” (University of Kentucky Research Foundation, priority 2017, published 2019).

SMILES strings stand for the structures. Read-outs that look alike come from different tables or passages of the source.

As usually defined, the IC50 is the concentration that inhibits the measured activity by half.

In one experiment the target is LMP2/β1i (Homo sapiens, UniProt P28065+P40306). Description: Proteasome inhibitory activity, subunit-specific cell lysate IC50, LMP2. It counts as biochemical. The arrangement: Subunit-Specific Cell lysate IC50 (μM); endogenous in cells.
For experiment [1], the system named is Chymotrypsin-like activity (β5/β5i). Description: Proteasome inhibitory activity, subunit-specific cell lysate IC50, chymotrypsin-like activity. It counts as biochemical.
Another experiment deals with BV-2 cells. Description: LPS-induced IL-6 production in BV-2 microglial cell line. As to conditions: FIG. 14. It counts as cell-based. An excerpt: To test this, we used BV-2 cell line, a microglial cell line, known to upregulate cytokines in response to LPS treatment. […] We suspect these contradictory results are due to cell type-specific role of LMP2, indicating a distinct role of LMP2 in microglia inflammatory response.

Experiment [2] relates to human peripheral blood mononuclear cells (PBMCs). As to conditions: previous studies; cited from earlier work.
Where [3] appears, read: read-out: Subunit-Specific Cell lysate IC50, LMP2 (β1i).
Where [4] appears, read: Subunit-Specific Cell lysate IC50, LMP2 (β1i).

Take `CC(C)C[C@H](NC(=O)[C@H](Cc1ccccc1)NC(=O)[C@@H]1CCCN1C(=O)CN1CCOCC1)C(=O)[C@@]1(C)CO1` [Analogue 1]: the half-inhibitory concentration (IC50) at LMP2/β1i (setting [3]) was 1200 nM; in experiment [1] it was more than 10000 nM.
As for `CC(C)C[C@H](NC(=O)[C@H](Cc1ccccc1)NC(=O)[C@@H]1CCCN1C(=O)c1cccc(O)n1)C(=O)[C@@]1(C)CO1` [Analogue 2], the IC50 was 1000 nM at LMP2/β1i (setting [3]) and more than 10000 nM in experiment [1].
As to `CC(C)C[C@H](NC(=O)[C@H](Cc1ccccc1)NC(=O)[C@@H]1CCCN1C(=O)CN1CCOCC1=O)C(=O)[C@@]1(C)CO1` [Analogue 3], the IC50 on LMP2/β1i (setting [3]) is 1000 nM; in experiment [1], more than 10000 nM.
For the compound `CC(=O)NCC(=O)N1CCC[C@H]1C(=O)N[C@@H](Cc1ccc(-c2ccccc2)cc1)C(=O)N[C@@H](CC(C)C)C(=O)[C@@]1(CO)CO1` [Analogue 4], the IC50 on LMP2/β1i (setting [3]) is 650 nM; in experiment [1] it was more than 10000 nM.
Take `CC(=O)NCC(=O)N1CCC[C@H]1C(=O)N[C@@H](Cc1ccc2ccccc2c1)C(=O)N[C@@H](CC(C)C)C(=O)[C@@]1(CO[Si](c2ccccc2)(c2ccccc2)C(C)(C)C)CO1` [Analogue 5]: the IC50 (on LMP2/β1i (setting [4]); in experiment [1]) was more than 10000 nM in each case.
Turning to `CC(=O)NCC(=O)N1CCC[C@H]1C(=O)N[C@@H](Cc1ccc2ccccc2c1)C(=O)N[C@@H](CC(C)C)C(=O)[C@@]1(CO)CO1` [Analogue 6], the IC50 worked out at 2200 nM on LMP2/β1i (setting [3]) and 7000 nM in experiment [1].
On to `CC(=O)NCC(=O)N1CCC[C@H]1C(=O)N[C@@H](Cc1ccc2ccccc2c1)C(=O)N[C@@H](CC(C)C)C(=O)[C@@]1(C)CO1` [Analogue 7], for which the IC50 at LMP2/β1i (setting [3]) was 30 nM; in experiment [1], more than 10000 nM.
On to `CC(=O)NCC(=O)N1CCC[C@H]1C(=O)N[C@@H](Cc1ccc(-c2ccccc2)cc1)C(=O)N[C@@H](CC(C)C)C(=O)[C@@]1(C)CO1` [Analogue 8], for which the IC50 was found to be 20 nM on LMP2/β1i (setting [3]) and 5000 nM in experiment [1].
On to `CCc1ccc(C[C@H](NC(=O)[C@@H]2CCCN2C(=O)CNC(C)=O)C(=O)N[C@@H](CC(C)C)C(=O)[C@@]2(C)CO2)cc1` [Analogue 9], for which the figures for the IC50 (on LMP2/β1i (setting [3]); in experiment [1]) were 130 nM and more than 10000 nM, respectively.
With `CC(=O)NCC(=O)N1CCC[C@H]1C(=O)N[C@@H](Cc1cccc2ccccc12)C(=O)N[C@@H](CC(C)C)C(=O)[C@@]1(C)CO1` [Analogue 10], the IC50 on LMP2/β1i (setting [3]) is 30 nM; in experiment [1] it was more than 10000 nM.
For the compound `CC(=O)NCC(=O)N1CCC[C@H]1C(=O)N[C@@H](Cc1ccccc1)C(=O)N[C@@H](CC(C)C)C(=O)[C@@]1(CO)CO1` [Analogue 11], the results for the IC50 (at LMP2/β1i (setting [3]); in experiment [1]) were 60 nM and more than 10000 nM, respectively.
As to `CC(=O)NCC(=O)N1CC(F)(F)C[C@H]1C(=O)N[C@@H](Cc1ccccc1)C(=O)N[C@@H](CC(C)C)C(=O)[C@@]1(C)CO1` [Analogue 12], the values for the IC50 (on LMP2/β1i (setting [3]); in experiment [1]) were 70 nM and more than 10000 nM, respectively.
`CC(=O)NCC(=O)N1CCC[C@H]1C(=O)N[C@@H](CCc1ccccc1)C(=O)N[C@@H](CC(C)C)C(=O)[C@@]1(C)CO1` [Analogue 13]: the IC50 is 60 nM on LMP2/β1i (setting [3]) and more than 10000 nM in experiment [1].
Turning to `CC(=O)NCC(=O)N1CCCCC1C(=O)N[C@@H](Cc1ccccc1)C(=O)N[C@@H](CC(C)C)C(=O)[C@@]1(C)CO1` (stereo partly shown) [Analogue 14], the IC50 at LMP2/β1i (setting [3]) was 120 nM; in experiment [1], 1000 nM.
As for `Cc1ncc(C(=O)NCC(=O)N2CCC[C@H]2C(=O)N[C@@H](Cc2ccccc2)C(=O)N[C@@H](CC(C)C)C(=O)[C@@]2(C)CO2)s1` [Analogue 15], the IC50 is 100 nM on LMP2/β1i (setting [3]) and more than 10000 nM in experiment [1].
In the case of `CC(C)C[C@H](NC(=O)[C@H](Cc1ccccc1)NC(=O)[C@@H]1CCCN1C(=O)CNC(=O)c1cccc(O)n1)C(=O)[C@@]1(C)CO1` [Analogue 17], the values for the half-maximal inhibitory concentration (IC50) (on LMP2/β1i (setting [3]); in experiment [1]) were 140 nM and more than 10000 nM, respectively.
`CC(=O)NCC(=O)N1CCC[C@H]1C(=O)N[C@@H](Cc1ccc(NC(=O)c2ccccc2)cc1)C(=O)N[C@@H](CC(C)C)C(=O)[C@@]1(C)CO1` [Analogue 18]: the IC50 at LMP2/β1i (setting [4]) turned out to be 70 nM; in experiment [1] it was 5000 nM.
`Cc1ncc(C(=O)NCC(=O)N2CCC[C@H]2C(=O)N[C@@H](CCc2ccccc2)C(=O)N[C@@H](CC(C)C)C(=O)[C@@]2(C)CO2)s1` [Analogue 19]: the IC50 on LMP2/β1i (setting [3]) was 180 nM; in experiment [1], more than 10000 nM.
With `CC(C)C[C@H](NC(=O)[C@H](CCc1ccccc1)NC(=O)[C@@H]1CCCN1C(=O)CNC(=O)c1cnccn1)C(=O)[C@@]1(C)CO1` [Analogue 20], the IC50 at LMP2/β1i (setting [3]) is 100 nM.
As for `Cc1cc(C(=O)NCC(=O)N2CCC[C@H]2C(=O)N[C@@H](CCc2ccccc2)C(=O)N[C@@H](CC(C)C)C(=O)[C@@]2(C)CO2)no1` [Analogue 21], the half-inhibitory concentration (IC50) at LMP2/β1i (setting [3]) was 130 nM; in experiment [1], more than 10000 nM.
For the compound `CC(C)C[C@H](NC(=O)[C@H](Cc1ccc(-c2ccccc2)cc1)NC(=O)[C@@H]1CCCN1C(=O)CNC(=O)c1cnccn1)C(=O)[C@@]1(C)CO1` [Analogue 22], the IC50 at LMP2/β1i (setting [3]) came out at 90 nM; in experiment [1], 5000 nM.
In the case of `CC(C)C[C@H](NC(=O)[C@H](Cc1ccc2ccccc2c1)NC(=O)[C@@H]1CCCN1C(=O)CNC(=O)c1cnccn1)C(=O)[C@@]1(C)CO1` [Analogue 23], on LMP2/β1i (setting [3]), the half-inhibitory concentration (IC50) was 60 nM.
Turning to `Cc1ncc(C(=O)NCC(=O)N2CCC[C@H]2C(=O)N[C@@H](Cc2ccc(-c3ccccc3)cc2)C(=O)N[C@@H](CC(C)C)C(=O)[C@@]2(C)CO2)s1` [Analogue 24], the IC50 on LMP2/β1i (setting [3]) was determined as 130 nM.
Regarding `CC(C)C[C@H](NC(=O)[C@H](Cc1ccccc1)NC(=O)[C@@H]1CCCN1C(=O)CNC(=O)C(F)(F)F)C(=O)[C@@]1(C)CO1` [Analogue 25], the IC50 at LMP2/β1i (setting [3]) is 130 nM; in experiment [1] it was more than 10000 nM.
Turning to `Cc1ncc(C(=O)NCC(=O)N2CCC[C@H]2C(=O)N[C@@H](Cc2ccc3ccccc3c2)C(=O)N[C@@H](CC(C)C)C(=O)[C@@]2(C)CO2)s1` [Analogue 26], the IC50 on LMP2/β1i (setting [3]) was 90 nM.
With `CC(C)C[C@H](NC(=O)[C@H](Cc1ccccc1)NC(=O)[C@@H]1CCCN1C(=O)CNC(=O)S(C)(=O)=O)C(=O)[C@@]1(C)CO1` [Analogue 27], the IC50 is 110 nM on LMP2/β1i (setting [3]) and more than 10000 nM in experiment [1].
Turning to `CC(=O)NCC(=O)N1CCC[C@H]1C(=O)N[C@@H](Cc1ccc(NC(=O)c2cnccn2)cc1)C(=O)N[C@@H](CC(C)C)C(=O)[C@@]1(C)CO1` [Analogue 28], the IC50 at LMP2/β1i (setting [4]) is 30 nM; in experiment [1], more than 10000 nM.
With `CC(=O)NCC(=O)N1CCC[C@H]1C(=O)N[C@@H](Cc1ccc(NC(=O)CN2CCOCC2)cc1)C(=O)N[C@@H](CC(C)C)C(=O)[C@@]1(C)CO1` [Analogue 29], the IC50 at LMP2/β1i (setting [3]) is 90 nM; in experiment [1] it was more than 10000 nM.
Consider `CC(=O)NCC(=O)N1CCC[C@H]1C(=O)N[C@@H](Cc1ccncc1)C(=O)N[C@@H](CC(C)C)C(=O)[C@@]1(C)CO1` [Analogue 30], for which the concentration for half-maximal inhibition (IC50) on LMP2/β1i (setting [3]) turned out to be 120 nM.
Take `COc1ccc(C[C@H](NC(=O)[C@H](C)NC(=O)CN2CCOCC2)C(=O)N[C@@H](Cc2ccccc2)C(=O)[C@@]2(C)CO2)cc1` [ONX-0914]: in the experiment on BV-2 cells, the “IL-6 production induced by LPS” value is “less effective in blocking IL-6 production”. Besides, the “LPS-induced cytokine production including IL-6” value in experiment [2] is given as “almost completely blocked”.
